This note sets out measurements from ChEMBL document CHEMBL1201862, “PubChem BioAssay data set” (2004).

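Exposure lasted 48 hours, with cells grown in 96-well plates and compounds tested at five concentrations. At the GI50, growth is halved.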 Calls of active or inactive are those of the source. No stated cut-off is given here; in the data, active = GI50 up to about 1.1 µM and inactive = higher. Bounds are passed on as bounds.

Test systems include DU-145; HCC 2998; HCT-116; HOP-62; IGROV-1; KM12; LOX IMVI; MCF7; Malme-3M; NCI-H23; NCI/ADR-RES; OVCAR-3; OVCAR-4; OVCAR-5; OVCAR-8; PC-3; SK-MEL-28; SK-MEL-2; SN12C; SNB-75.
Assay in all cases: DTP human tumour cell line panel, 48 h

Regarding `CCOC(CNc1nn2c(C)nnc2s1)OCC`, the GI50 in the assay on DU-145, with HCC 2998, with HCT-116, in the assay on HOP-62, in the assay on IGROV-1 and in the assay on KM12 was > 100 µM (inactive) in each case. The GI50 with LOX IMVI, with MCF7, with Malme-3M, in the assay on NCI-H23, in the assay on NCI/ADR-RES and with OVCAR-3 was > 100 µM (inactive) each time. The GI50 with OVCAR-4, with OVCAR-5, in the assay on OVCAR-8, in the assay on PC-3, in the assay with SK-MEL-28 and in the assay with SK-MEL-2 was > 100 µM (inactive) throughout. Moreover, the GI50 with SN12C and in the assay on SNB-75 was > 100 µM (inactive) each time.
Consider `COc1cc(OCCN(C)C)c2[nH]c(C(=O)N3CC(CCl)c4c3cc(N)c3ccccc43)cc2c1` (stereo not given), for which the GI50 with DU-145, in the assay on HCC 2998, with HCT-116, in the assay with HOP-62, with IGROV-1 and in the assay on KM12 was < 0.01 µM (active) in each case. The GI50 in the assay with LOX IMVI, in the assay with MCF7, with Malme-3M, in the assay on NCI-H23, in the assay with NCI/ADR-RES and in the assay on OVCAR-3 was < 0.01 µM (active) each time. The GI50 (in general, the concentration that inhibits growth by half) was < 0.018 µM (active) with OVCAR-4; < 0.01 µM (active) in the assay with OVCAR-5; < 0.01 µM (active) in the assay on OVCAR-8; < 0.01 µM (active) in the assay with PC-3; < 0.01 µM (active) in the assay with SK-MEL-28; < 0.01 µM (active) with SK-MEL-2. Moreover, the 50% growth inhibitory concentration (GI50) with SN12C and in the assay with SNB-75 was < 0.01 µM (active) in each case.
Take `OCc1ccc2c(c1)CC1(C2)Cc2cc3c(cc2C1O)CCC3` (stereo not given): the GI50 in the assay with DU-145 is 9.1 µM (inactive); with HCC 2998, 6.55 µM (inactive); in the assay on HCT-116, 3.37 µM (inactive); with HOP-62, 4.49 µM (inactive); with IGROV-1, 4.84 µM (inactive); in the assay with KM12 it was 2.87 µM (inactive). The GI50 is 5.18 µM (inactive) with LOX IMVI; 3.66 µM (inactive) with MCF7; 5.01 µM (inactive) in the assay with Malme-3M; 5.35 µM (inactive) with NCI-H23; 2.58 µM (inactive) in the assay with NCI/ADR-RES; 4.78 µM (inactive) in the assay on OVCAR-3. For the same compound, the GI50 in the assay with OVCAR-4 is 10.4 µM (inactive); with OVCAR-5, 18.9 µM (inactive); with OVCAR-8, 5.74 µM (inactive); in the assay on PC-3 it was 2.34 µM (inactive); in the assay with SK-MEL-28 it was 6.34 µM (inactive); in the assay with SK-MEL-2 it was 3.33 µM (inactive). The GI50 was 3.22 µM (inactive) with SN12C and 3.85 µM (inactive) in the assay on SNB-75.
Take `O=C(NCC1Nc2ccncc2S(=O)(=O)N1)c1ccc(Br)cc1` (stereo not given): the GI50 in the assay on DU-145 was 77.6 µM (inactive); in the assay with HCC 2998, 51.9 µM (inactive); in the assay with HCT-116, 43.9 µM (inactive); with HOP-62, > 100 µM (inactive); with IGROV-1, 80.5 µM (inactive); in the assay with KM12, 40.6 µM (inactive). Besides, the GI50 was 38.6 µM (inactive) in the assay on LOX IMVI; 37 µM (inactive) with MCF7; 28.8 µM (inactive) with Malme-3M; 66.1 µM (inactive) with NCI-H23; 59.8 µM (inactive) in the assay on NCI/ADR-RES; 30.8 µM (inactive) in the assay with OVCAR-3. Further, the GI50 in the assay on OVCAR-4 is 64.6 µM (inactive); in the assay with OVCAR-5, > 100 µM (inactive); in the assay with OVCAR-8, 35.9 µM (inactive); in the assay with PC-3, 17.7 µM (inactive); with SK-MEL-28, 92.5 µM (inactive); in the assay on SK-MEL-2 it was 14.9 µM (inactive). The GI50 with SN12C is > 100 µM (inactive); with SNB-75, 73.6 µM (inactive).
Turning to `COc1cccc(-c2cc(O)c3c(C)cc(C)nc3n2)c1`, the GI50 in the assay on DU-145 was 1.21 µM (inactive); with HCC 2998 it was 0.682 µM (active); in the assay on HCT-116, 0.395 µM (active); in the assay with HOP-62 it was 1.09 µM (active); in the assay with IGROV-1, 0.486 µM (active); in the assay with KM12 it was 0.264 µM (active). Moreover, the 50% growth inhibitory concentration (GI50) with LOX IMVI was 0.703 µM (active); with MCF7, 0.442 µM (active); with Malme-3M it was 0.252 µM (active); in the assay on NCI-H23 it was 0.746 µM (active); in the assay with NCI/ADR-RES it was 1.13 µM (inactive); in the assay on OVCAR-3, 0.228 µM (active). For the same compound, the GI50 is 4.09 µM (inactive) in the assay with OVCAR-4; 2.57 µM (inactive) in the assay on OVCAR-5; 0.944 µM (active) in the assay with OVCAR-8; 0.304 µM (active) in the assay on PC-3; 0.83 µM (active) with SK-MEL-28; 0.615 µM (active) with SK-MEL-2. The concentration for 50% growth inhibition (GI50) with SN12C was 0.845 µM (active); in the assay with SNB-75, 0.167 µM (active).
Regarding `COC(=O)c1c(C)ccc2c(O)c3c(cc12)C(=O)c1c2c(cc(O)c1C3=O)C1(C)OC(C)(O2)C(O)C(N(C)C)C1O` (stereo not given), the GI50 is 1.43 µM (inactive) with DU-145; 0.532 µM (active) with HCC 2998; 0.643 µM (active) in the assay with HCT-116; 1.74 µM (inactive) in the assay with HOP-62; 1.06 µM (active) in the assay on IGROV-1; 1.42 µM (inactive) with KM12. Further, the GI50 in the assay with LOX IMVI is 1.24 µM (inactive); in the assay with MCF7 it was 1.28 µM (inactive); in the assay on Malme-3M, 2.62 µM (inactive); in the assay with NCI-H23, 1.56 µM (inactive); in the assay on NCI/ADR-RES it was 2.79 µM (inactive); with OVCAR-3 it was 2.41 µM (inactive). For the same compound, the GI50 with OVCAR-4 is 2.12 µM (inactive); in the assay with OVCAR-5, 2.96 µM (inactive); with OVCAR-8, 0.83 µM (active); in the assay with PC-3 it was 1.66 µM (inactive); in the assay on SK-MEL-28 it was 4.37 µM (inactive); in the assay with SK-MEL-2, 2.24 µM (inactive). For the same compound, the GI50 in the assay on SN12C is 2.41 µM (inactive); in the assay with SNB-75 it was 1.61 µM (inactive).
For `CC(NC(=O)C(N)CC(=O)O)NC(=O)N(C)C(C)(C)C` (stereo not given), the GI50 with DU-145, with HCC 2998, in the assay on HCT-116, in the assay on HOP-62, in the assay with IGROV-1 and with KM12 was > 100 µM (inactive) each time. In addition, the GI50 with LOX IMVI, in the assay with MCF7, in the assay on Malme-3M, in the assay with NCI-H23, in the assay with NCI/ADR-RES and in the assay with OVCAR-3 was > 100 µM (inactive) throughout. The GI50 in the assay on OVCAR-4, with OVCAR-5, with OVCAR-8, with PC-3, in the assay on SK-MEL-28 and with SK-MEL-2 was > 100 µM (inactive) in each case. The GI50 with SN12C and with SNB-75 was > 100 µM (inactive) each time.
For `CC1(C)CC(=O)C2=C(C1)N(c1ccccc1)C1(O)C=CC(O)=C3C(=O)c4ccccc4C(=O)C321` (stereo not given), the GI50 in the assay on DU-145 was 74 µM (inactive); in the assay with HCC 2998, 30.2 µM (inactive); in the assay with HCT-116, 61.4 µM (inactive); in the assay with HOP-62, 34.4 µM (inactive); in the assay on IGROV-1, 26 µM (inactive); in the assay with KM12 it was 23 µM (inactive). Further, the GI50 in the assay on LOX IMVI was 21 µM (inactive); in the assay on MCF7 it was 27.7 µM (inactive); in the assay with Malme-3M, 26.7 µM (inactive); in the assay with NCI-H23, 24.6 µM (inactive); in the assay with NCI/ADR-RES, 9.84 µM (inactive); in the assay with OVCAR-3, 37.8 µM (inactive). Further, the GI50 in the assay on OVCAR-4 was 14.7 µM (inactive); with OVCAR-5, 42.8 µM (inactive); in the assay with OVCAR-8, 37.8 µM (inactive); with PC-3, 26.2 µM (inactive); in the assay on SK-MEL-28, 17.8 µM (inactive); in the assay on SK-MEL-2, 27 µM (inactive). In addition, the GI50 in the assay on SN12C is 28.7 µM (inactive); in the assay on SNB-75, 22.5 µM (inactive).
In the case of `CN(NC(=O)/C(=C/c1ccc(O)cc1)NC(=O)c1ccccc1)c1ccnc2cc(Cl)ccc12`, the GI50 in the assay on DU-145 is 21.9 µM (inactive); with HCC 2998, 18.1 µM (inactive); with HCT-116 it was 18.2 µM (inactive); with HOP-62, 15.1 µM (inactive); in the assay with IGROV-1 it was 16.3 µM (inactive); in the assay on KM12 it was 17.8 µM (inactive). Further, the GI50 in the assay on LOX IMVI was 18.8 µM (inactive); in the assay on MCF7, 13.6 µM (inactive); with Malme-3M it was 20 µM (inactive); in the assay with NCI-H23 it was > 10 µM (inactive); in the assay with NCI/ADR-RES, 14.5 µM (inactive); with OVCAR-3 it was 16.7 µM (inactive). Moreover, the GI50 is 17 µM (inactive) in the assay on OVCAR-4; 22.5 µM (inactive) with OVCAR-5; 17.8 µM (inactive) in the assay with OVCAR-8; 16.6 µM (inactive) in the assay with PC-3; 19.9 µM (inactive) with SK-MEL-28; 22.3 µM (inactive) with SK-MEL-2. For the same compound, the GI50 in the assay on SN12C was 24.9 µM (inactive); in the assay with SNB-75, 8.85 µM (inactive).
With `C=C1CC(c2ccc(OCCCN3C(=O)c4ccccc4C3=O)cc2)OC1=O` (stereo not given), the GI50 is 4.75 µM (inactive) in the assay with DU-145; 3.78 µM (inactive) in the assay on HCC 2998; 1.8 µM (inactive) in the assay with HCT-116; 16.4 µM (inactive) in the assay with HOP-62; 1.06 µM (active) in the assay with IGROV-1; 3.83 µM (inactive) in the assay with KM12. For the same compound, the GI50 is 1.36 µM (inactive) in the assay with LOX IMVI; 1.42 µM (inactive) in the assay on MCF7; 2.54 µM (inactive) with Malme-3M; 2.35 µM (inactive) in the assay on NCI-H23; 8.09 µM (inactive) in the assay with NCI/ADR-RES; 1.86 µM (inactive) in the assay on OVCAR-3. The GI50 is 2.45 µM (inactive) in the assay with OVCAR-4; 11.4 µM (inactive) with OVCAR-5; 2.71 µM (inactive) with OVCAR-8; 2.92 µM (inactive) in the assay on PC-3; 1.81 µM (inactive) in the assay on SK-MEL-28; 1.96 µM (inactive) in the assay on SK-MEL-2. Besides, the GI50 in the assay on SN12C is 3.31 µM (inactive); in the assay on SNB-75, 10.6 µM (inactive).
